Data from patent US9133235B2, “Macrocyclic antagonists of the motilin receptor for treatment of gastrointestinal dysmotility disorders” (Ocera Therapeutics, Inc., priority 2006, dated 2015).

Each compound was assayed against human motilin receptor (Homo sapiens, UniProt O43193) (assay: Competitive radioligand binding assay (motilin receptor)). Conditions: [125I]-motilin competition, membranes of CHO cells with human motilin receptor; read-out: Ki.
Set-up: purchased PerkinElmer (SignalScreen) 6110544; host or cells: CHO cells, stably transfected; membranes
Protocol: A. Competitive Radioligand Binding Assay (Motilin Receptor)
The competitive binding assay at the human motilin receptor was carried out analogously to assays described in the literature.
• Membranes were prepared from CHO cells stably transfected with the human motilin receptor and utilized at a quantity of 1.5 μg/assay point. [PerkinElmer™ SignalScreen Product #6110544] • [^125I]-Motilin (PerkinElmer, #NEX-378); final concentration: 0.04-0.06 nM • Motilin (Bachem™, #H-4385); final concentration: 1 μM • Multiscreen Harvest plates-GF/B (Millipore™, #MAHFB1H60) • Deep-well polypropylene titer plate (Beckman Coulter™, #267006) • TopSeal-A (PerkinElmer, #6005185) • Bottom seal (Millipore, #MATAH0P00) • MicroScint-0 (PerkinElmer, #6013611) • Binding Buffer: 50 mM Tris-HCl (pH 7.4), 10 mM MgCl2, 1 mM EDTA, 0.1% BSA Assay Volumes: • 150 μL of membranes diluted in binding buffer • 10 μL of compound diluted in binding buffer • 10 μL of radioligand ([^125I]-Motilin) diluted in binding buffer Final Test Concentrations (N=11) for Compounds: • 10, 5.0, 2.0, 1.0, 0.50, 0.20, 0.10, 0.050, 0.020, 0.010, 0.0050 μM. Compound Handling:
Compounds were provided frozen on dry ice at a stock concentration of 10 mM diluted in 100% DMSO and stored at −20° C. until the day of testing. On the test day, compounds were allowed to thaw at room temperature and than diluted in assay buffer according to the desired test concentrations. Under these conditions, the maximum final DMSO concentration in the assay was 0.5%.
In deep-well plates, diluted cell membranes (1.5 μg/mL) are combined with 10 μL of either binding buffer (total binding, N=5), 1 μM motilin (non-specific binding, N=3) or the appropriate concentration of test compound. The reaction is initiated by addition of 10 μL of [^125I]-motilin (final conc. 0.04-0.06 nM) to each well. Plates are sealed with TopSeal-A, vortexed gently and incubated at room temperature for 2 hours. The reaction is arrested by filtering samples through pre-soaked (0.3% polyethyleneimine, 2 h) Multiscreen Harvest plates using a Tomtec Harvester, washed 9 times with 500 μL of cold 50 mM Tris-HCl (pH 7.4), and than plates are air-dried in a fumehood for 30 minutes. A bottom seal is applied to the plates prior to the addition of 25 μL of MicroScint-0 to each well. Plates are than sealed with TopSeal-A and counted for 30 sec per well on a TopCount Microplate Scintillation and Luminescence Counter (PerkinElmer) where results are expressed as counts per minute (cpm).
Data are analyzed by GraphPad™ Prism® (GraphPad Software, San Diego, Calif.) using a variable slope non-linear regression analysis.
[formula] where total and non-specific binding represent the cpm obtained in the absence or presence of 1 μM motilin, respectively.

Chain of human motilin receptor (O43193 whole entry): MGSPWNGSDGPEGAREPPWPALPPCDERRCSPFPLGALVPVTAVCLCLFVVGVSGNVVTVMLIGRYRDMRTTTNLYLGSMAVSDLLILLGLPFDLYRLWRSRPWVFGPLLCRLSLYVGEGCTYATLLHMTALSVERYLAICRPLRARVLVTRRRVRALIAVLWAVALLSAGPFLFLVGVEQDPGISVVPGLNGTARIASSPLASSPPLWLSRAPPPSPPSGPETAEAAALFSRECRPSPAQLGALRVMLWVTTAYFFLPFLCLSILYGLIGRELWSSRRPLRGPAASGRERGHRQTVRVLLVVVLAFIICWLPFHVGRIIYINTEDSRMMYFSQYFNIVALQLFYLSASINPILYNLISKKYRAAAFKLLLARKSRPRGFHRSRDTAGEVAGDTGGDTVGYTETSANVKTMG

SMILES | Ki [µM]
CC(C)[C@H]1NC(=O)[C@@H](Cc2cccc(Cl)c2)NCCOc2ccccc2CCCNC(=O)[C@H](CNC2=NCCCN2)NC1=O [Compound 521] | ≤ 0.1
CC(C)[C@H]1NC(=O)[C@@H](Cc2ccc(F)cc2)NCCOc2ccccc2C[C@H](C)CNC(=O)[C@H](CC2CC2)NC1=O [Compound 567] | ≤ 0.01
CC(C)[C@H]1NC(=O)[C@@H](Cc2cccc(F)c2)NCCOc2ccccc2C[C@@H](C)CNC(=O)[C@H](CN(C)C)NC1=O [Compound 514] | ≤ 1
CC(C)[C@H]1NC(=O)[C@@H](Cc2cccc(Cl)c2)NCCOc2ccccc2CCCNC(=O)[C@H](CN/C(N)=N/C#N)NC1=O [Compound 522] | ≤ 0.1
CC(C)C[C@@H]1NC(=O)[C@@H](C(C)C)NC(=O)[C@@H](Cc2cccc(F)c2)N[C@@H](C)COc2ccccc2CCCNC1=O [Compound 556] | ≤ 0.01
CC(C)NC[C@@H]1NC(=O)[C@@H](C(C)C)NC(=O)[C@@H](Cc2ccc(Cl)cc2)NCCOc2ccccc2CCCNC1=O [Compound 581] | ≤ 0.1
CCC[C@@H]1NC(=O)[C@@H](C(C)C)NC(=O)[C@@H](Cc2cccc(OC)c2)N[C@@H](C)COc2ccccc2CCCNC1=O [Compound 562] | ≤ 0.01
CCC[C@@H]1NC(=O)[C@@H](CC)NC(=O)[C@@H](Cc2cccc(F)c2)N[C@@H](C)COc2ccccc2CCCNC1=O [Compound 558] | ≤ 0.01
CC(C)[C@H]1NC(=O)[C@@H](Cc2cccc(F)c2)NCCOc2ccccc2C[C@@H](C)CNC(=O)[C@H](CC2CC2)NC1=O [Compound 587] | ≤ 0.1
CC(C)[C@H]1NC(=O)[C@@H](Cc2cccc(Cl)c2)NCCOc2ccccc2CCCNC(=O)[C@H](CCNC(=N)N)NC1=O [Compound 507] | ≤ 0.1
CC(C)[C@H]1NC(=O)[C@@H](Cc2cccc(C(F)(F)F)c2)NCCOc2ccccc2CCCNC(=O)[C@H](CN2CCOCC2)NC1=O [Compound 525] | ≤ 0.1
CC(C)[C@H]1NC(=O)[C@@H](Cc2cccc(Cl)c2)NCCOc2ccccc2CCCNC(=O)[C@H](CNc2nccs2)NC1=O [Compound 509] | ≤ 0.1
CCC[C@@H]1NC(=O)[C@@H](C(C)C)NC(=O)[C@@H](Cc2ccc(F)c(F)c2)N[C@@H](C)COc2ccccc2CCCNC1=O [Compound 561] | ≤ 0.01
CC(C)[C@H]1NC(=O)[C@@H](Cc2cccc(C(F)(F)F)c2)NCCOc2ccccc2CCCNC(=O)[C@H](CNc2ncccn2)NC1=O [Compound 524] | ≤ 0.1
CC(C)[C@H]1NC(=O)[C@@H](Cc2ccc(F)cc2)N[C@@H](C)COc2ccccc2CCCNC(=O)[C@H](CC2CC2)NC1=O [Compound 559] | ≤ 0.01
CCC[C@@H]1NC(=O)[C@@H](C(C)C)NC(=O)[C@@H](Cc2ccc(F)cc2)N[C@@H](C)COc2ccccc2CCCNC1=O [Compound 560] | ≤ 0.01
Cc1nnn(C[C@@H]2NC(=O)[C@@H](C(C)C)NC(=O)[C@@H](Cc3cccc(C(F)(F)F)c3)NCCOc3ccccc3CCCNC2=O)c1C [Compound 528] | ≤ 0.1
CC(C)[C@H]1NC(=O)[C@@H](Cc2cccc(F)c2)NCCOc2ccccc2C[C@H](C)CNC(=O)[C@H](CC2CC2)NC1=O [Compound 588] | ≤ 0.01
CC(C)[C@H]1NC(=O)[C@@H](Cc2ccc(Cl)cc2)NCCOc2ccccc2CCCNC(=O)[C@H](CNC(N)=O)NC1=O [Compound 577] | ≤ 1
C[C@@H]1CNC(=O)[C@H](CC2CC2)NC(=O)[C@@H](C2CC2)NC(=O)[C@@H](Cc2cccc(F)c2)NCCOc2ccccc2C1 [Compound 566] | ≤ 0.01
Cc1cnnn1C[C@@H]1NC(=O)[C@@H](C(C)C)NC(=O)[C@@H](Cc2cccc(C(F)(F)F)c2)NCCOc2ccccc2CCCNC1=O [Compound 526] | ≤ 0.1
CC(C)[C@H]1NC(=O)[C@@H](Cc2cccc(C(F)(F)F)c2)NCCOc2ccccc2CCCNC(=O)[C@H](Cn2nncc2CN)NC1=O [Compound 523] | ≤ 0.1
CC(C)[C@H]1NC(=O)[C@@H](Cc2ccc(Cl)cc2)NCCOc2ccccc2CCCNC(=O)[C@H](CNS(C)(=O)=O)NC1=O [Compound 576] | ≤ 1
CC(C)NC[C@@H]1NC(=O)[C@@H](C(C)C)NC(=O)[C@@H](Cc2ccc(O)cc2)NCCOc2ccccc2CCCNC1=O [Compound 579] | ≤ 1
CC(C)[C@H]1NC(=O)[C@@H](Cc2cccc(F)c2)NCCOc2ccccc2CCCNC(=O)[C@H](CC2CC2)NC1=O [Compound 584] | ≤ 0.1
CC(C)[C@H]1NC(=O)[C@@H](Cc2cccc(Cl)c2)NCCOc2ccccc2CCCNC(=O)[C@H](CC(=N)N)NC1=O [Compound 518] | ≤ 0.1
CCC[C@@H]1NC(=O)[C@@H](C(C)C)NC(=O)[C@@H](Cc2ccc(C(F)(F)F)cc2)NCCOc2ccccc2CCCNC1=O [Compound 575] | ≤ 0.1
COc1ccc(C[C@H]2NCCOc3ccccc3CCCNC(=O)[C@H](CCO)NC(=O)[C@@H](C(C)C)NC2=O)cc1 [Compound 583] | ≤ 1
Cc1nnnn1C[C@@H]1NC(=O)[C@@H](C(C)C)NC(=O)[C@@H](Cc2cccc(C(F)(F)F)c2)NCCOc2ccccc2CCCNC1=O [Compound 527] | ≤ 0.1

Same assay, conditions: previously determined during membrane characterization

SMILES | Kd [µM]
CC[C@H](C)[C@H](NC(=O)[C@@H]1CCCN1C(=O)[C@@H](NC(=O)[C@@H](N)Cc1ccccc1)C(C)C)C(=O)N[C@@H](Cc1ccccc1)C(=O)N[C@H](C(=O)N[C@@H](Cc1ccc(O)cc1)C(=O)NCC(=O)N[C@@H](CCC(=O)O)C(=O)N[C@@H](CC(C)C)C(=O)N[C@@H](CCC(N)=O)C(=O)N[C@@H](CCCNC(=N)N)C(=O)N[C@@H](CCSC)C(=O)N[C@@H](CCC(N)=O)C(=O)N[C@@H](CCC(=O)O)C(=O)N[C@@H](CCCCN)C(=O)N[C@@H](CCC(=O)O)C(=O)N[C@@H](CCCNC(=N)N)C(=O)N[C@@H](CC(N)=O)C(=O)N[C@@H](CCCCN)C(=O)NCC(=O)N[C@@H](CCC(N)=O)C(=O)O)[C@@H](C)O [[^125I]-motilin, [^125I]-Motilin, reference compound] | 0.00016
